According to patent US5852050A, “Preparation for treating wounds or hemorrhoids” (Kaken Pharmaceutical Co., Ltd., priority 1992, dated 1998):
Entries after “also recorded” stand apart in the source; their conditions may differ. Read-outs that look alike come from different tables or passages of the source. One block for each compound: values may come before it.

How the values were obtained:
[1] = tested on: platelet aggregation; conditions: background statement; cited from earlier work
[2] = Solubility in water; type: physicochemical; conditions: beraprost or a salt thereof, powder
[3] = background statement; cited from earlier work
[4] = tested on: Experimental Hemorrhoids Model in Rats; assay: Therapy effects on experimental hemorrhoids model in rats (croton oil); type: in vivo, Male SLC: Wistar rats; conditions: for Wet weight of anus-rectum: twice a day for 4 days, average ± standard error, * P < 0.05 vs control
Description: (§1) Prevention and Therapy Effects on Experimental Hemorrhoids Model in Rats
(§2) A mixture of 1 volume of distilled water, 4 volumes of pyridine, 5 volumes of ethyl ether and 10 volumes of a 3% croton oil ethyl ether solution was used. The distilled water and a small amount of ethyl ether were added to, and blended with, the pyridine, and the 3% croton oil ethyl ether solution was added. Further, the remaining ethyl ether was added, and the mixture was vigorously stirred to prepare an inflammation-inducing agent containing croton oil. This solution was prepared just before the test, and stored with ice cooling during the test.
(§3) Beraprost (sodium salt) was dissolved in distilled water to prepare a solution for oral administration and dissolved in a saline solution to prepare a solution for intrarectal administration.
(§4) In the test of effects on the prevention of hemorrhoids, the dosage for oral administration was 0.1, 0.3 or 1.0 mg/kg, and the dosage for intrarectal administration was 0.01, 0.03, 0.1, 0.3 or 1.0 mg/kg. In the tests of effects on the therapy of hemorrhoids, the dosage for oral administration was 0.1 mg/kg, and the dosage for intrarectal administration was 0.03 mg/kg. Further, the dosage of the solution for oral administration was 10 ml/kg, and the dosage of the solution for intrarectal administration was 100 μl/kg.
(§5) Seven to 8 rats were used as one group.
In the test of effects on the therapy of hemorrhoids, inflammation was induced with an inflammation-inducing agent containing croton oil in the same manner as in the test of effects on the prevention. Beraprost was administered twice a day in the morning and evening for 4 days, and the administration was started one day after the induction of inflammation. Rectum-anus portions isolated after 5 days in the same manner as in the test of effects on prevention were measured for a weight.
(§6) In addition, distilled water alone was administered to the control group for oral administration, and a saline solution (vehicle) alone was administered to the control group for intrarectal administration. Further, for comparison, a non-treated group which was neither treated with the inflammation-inducing agent containing croton oil and nor treated with a medicament and which was neither administered with distilled water nor administered with a saline solution was tested in the same manner.
(§7) For the effect of beraprost on the weight of the rectum-anus portion, the difference from the control group was determined according to Student's t test, and for the histological data, the difference from the control group was determined according to Kruskal-Wallis H test. Further, the inhibition ratio was calculated on the basis of the rectum-anus portion average weight of each group by the following equation.
(§8) Inhibition ratio (%)={1-[medicament-administered group-non-treated
(§9) group)/(control group-non-treated group)]}×100

[5] = Chemical stability; type: physicochemical; conditions: beraprost or a salt thereof, powder
[6] = tested on: Experimental Hemorrhoids Model in Rats; assay: Prevention effects on experimental hemorrhoids model in rats (croton oil); type: in vivo, Male SLC: Wistar rats; design: Mucosa Bleeding, Necrosis, Peeling (total length from anus transition portion) / Mucosa Red thrombus (number of thrombus) / Mucosa Epithelium Activation, number of rats / Mucosa Congestion, number of rats / Submucosa Swelling, number of rats / Submucosa Inflammatory cell infiltration, number of rats: dose or concentration left out as unconfirmed; conditions: for Submucosa Inflammatory cell infiltration, number of rats / Mucosa Congestion, number of rats / Mucosa Epithelium Activation, number of rats / Submucosa Swelling, number of rats: 8 rats
Description: as §1, §2, §3, §4, §5
In the test of prevention of hemorrhoids, beraprost was orally or intrarectally administered, and 30 minutes after the administration, 100 μl of the inflammation-inducing agent containing croton oil was infiltrated into the tampon of a swab and the tampon was inserted into the anus of each rat under no anesthesia for 10 seconds to induce inflammation.
Three hours after the induction of inflammation, the rats were sacrificed by bleeding under anesthesia with ethyl ether, and a rectum-anus portion was taken from each rat such that it was exactly 20 mm long from a circular hairline on the anus epithelium, and measured for a weight.
Further, in the intrarectally administered group, the isolated rectum-anus portion was fixed with a 10% neutral buffer formalin solution, and paraffin sections, Hematoxyrin-Eosin-stained specimens and Phosphotungstic acid hematoxyin-stained specimens were prepared according to conventional methods. Then, these were observed and their photographs were taken through an optical microscope The histological data obtained by the intrarectal administration of beraprost were examined.
as §6, §7, §8, §9

[7] = tested on: full-thickness skin layer wounds of diabetic mice; assay: Effect of Beraprost on Wound Healing in full-thickness skin wound model of diabetic mice; type: in vivo, hereditary diabetic mice (C57BL/KsJ-dbm (db+/db+))
Description: Effect of Beraprost on Wound Healing in Full Sickness Wound Model of Diabetic Mice Whose Full-Thickness Skin Layer was Ablated
Hair on the backs of hereditary diabetic mice (C57BL/KsJ-dbm (db+/db+), male, 11 to 12 weeks of age, 6 mice per group) was removed one day before a test. The back portions of the mice were cleaned with ethanol under ether anesthesia, and circular full-thickness skin layer wounds (2 cm^2) were formed in the middle portions of the backs with surgical curved scissors.
Beraprost (sodium salt) as a test medicament was prepared in the form of a saline solution containing 20 % ethanol, and the saline solution was dropwise administered at a dosage of 5 μg/10 μl/cm^2 ×14 times (once per day for 14 days). As control, a solution (vehicle) containing no medicament was administered.
For evaluating the effects of the test medicament, the wound surfaces were traced on plastic sheets at intervals of 2-3 days, and measured for wound areas with a planimeter. The ratios of the wound areas to the area immediately after the skin ablation were calculated, and the numbers of days required for the visual completion of epidermization (complete healing) from the skin-removed wounds were used as indices.
Further, the degrees of the vascularization and granulation of wound surfaces were visually scored, and changes with the passage of days and side effects were observed.
Further, an exudate was collected 9 days after the skin ablation, and a mixture of the exudate with a saline solution used for washing the wound was measured for a leucocyte number through a microscope.
Further, the mice were sacrificed by ether anesthesia on 31th day, and skins of the wound portions were cut off and fixed with a 10% neutral buffer formalin solution. Then, paraffin sections, Hematoxyrin-Eosin-stained specimens and Masson trichrome-stained specimens were prepared according to conventional methods and observed through a microscope.

[8] = intrarectal 0.03 mg/kg, on average, P<0.01
[9] = intrarectal, average ± standard error, ** P < 0.01
[10] = score + (Low degree), intrarectal, distribution XX P < 0.01
[11] = score ++ (Intermediate degree), intrarectal
[12] = 9 days after the administration, as compared with vehicle
[13] = 9 days after the administration, mean ± S.E., ** P < 0.01 vs vehicle
[14] = score + (Low degree), 31 days after the skin ablation
[15] = score + (Low degree), 31 days after the skin ablation, distribution * P < 0.05 (H test)
[16] = score ++ (Intermediate degree), 31 days after the skin ablation
[17] = score +++ (High degree), 31 days after the skin ablation
[18] = score - (Not affected), 31 days after the skin ablation

Structure (SMILES): CCCCC[C@H](O)/C=C/[C@H]1[C@H](O)CC(=O)[C@@H]1CCCCCCC(=O)O [PGE1, prostaglandin E1]
inhibition activity of platelet aggregation [1]: high inhibition activity of platelet aggregation

solubility in water [2]: soluble in water | chemical stability [5]: chemically stable | weight difference from vehicle-administered group ([7]; mouse, in vivo): no weight difference was observed
Structure (SMILES): CC#CCC(C)[C@H](O)/C=C/[C@@H]1[C@H]2c3cccc(CCCC(=O)O)c3O[C@H]2C[C@H]1O (relative stereo) [Beraprost, (±)-(1R*, 2R*,3aS*,8bS*)-2,3,3a,8b-tetrahydro-2-hydroxy-1-[(E)-(3S*)-3-hydroxy-4-methyl-1-octen-6-ynyl]-1H-cyclopenta[b]benzofuran-5-butyric acid]
chemical stability [3]: chemically stable | Inhibition ratio ([4]; i.r. 0.03 mg/kg): 31.4% | Wet weight of anus-rectum ([4]; i.r. 0.03 mg/kg): 368.5 ± 27.35 mg | activity for inhibiting the swelling (in words) ([4]; oral 0.1 mg/kg and intrarectal 0.03 mg/kg, P<0.05): significant (P<0.05) activity for inhibiting the swelling | Inhibition ratio ([4]; p.o. 0.1 mg/kg): 27.1% | Wet weight of anus-rectum ([4]; p.o. 0.1 mg/kg): 380.7 ± 23.74 mg | dosage group with the largest effect ([6]; intrarectal): 0.03 mg/kg | Inhibition ratio ([6]; intrarectal 0.01 mg/kg): 22.9% | Wet weight of anus-rectum ([6]; intrarectal 0.01 mg/kg, average ± standard error, ** P < 0.01 vs control): 303.3 ± 6.25 mg | Inhibition ratio ([6]; intrarectal 0.03 mg/kg): 35.8% | histology of rectum (in words) ([6]; intrarectal 0.03 mg/kg): the degrees of swelling and inflammatory cell infiltration lowered; also recorded: the mucosal epithelial cell nucleus was more densely stained than in a normal portion, and cells which appeared to be in an active state were distinctly observed; also recorded: the degree of congestion was lowered | Wet weight of anus-rectum ([6]; intrarectal 0.03 mg/kg, average ± standard error, ** P < 0.01 vs control): 277.3 ± 12.88 mg | number of blood vessels having red thrombus [6, 8]: 6.8±2.35 | range of bleeding, necrosis and peeling of mucosal layer [6, 8]: 5.4±0.19 mm | Inhibition ratio ([6]; intrarectal 0.1 mg/kg): 30.1% | Wet weight of anus-rectum ([6]; intrarectal 0.1 mg/kg, average ± standard error, ** P < 0.01 vs control): 288.7 ± 5.63 mg | Inhibition ratio ([6]; intrarectal 0.3 mg/kg): 24.6% | Wet weight of anus-rectum ([6]; intrarectal 0.3 mg/kg, average ± standard error, ** P < 0.01 vs control): 299.7 ± 9.74 mg | Inhibition ratio ([6]; intrarectal 1.0 mg/kg): 20.5% | Wet weight of anus-rectum ([6]; intrarectal 1.0 mg/kg, average ± standard error, * P < 0.05 vs control): 308.0 ± 14.51 mg | inhibition of rectum-anus weight increase (in words) ([6]; intrarectal 0.01 to 1.0 mg/kg, P<0.05 to 0.01): significant inhibition activity | Mucosa Bleeding, Necrosis, Peeling (total length from anus transition portion) [6, 9]: 5.4 ± 0.19 mm | Mucosa Red thrombus (number of thrombus) [6, 9]: 6.8 ± 2.35 | Inhibition ratio ([6]; oral 0.1 mg/kg): 24.5% | Wet weight of anus-rectum ([6]; oral 0.1 mg/kg, average ± standard error, ** P < 0.01 vs control): 307.1 ± 5.87 mg | Inhibition ratio ([6]; oral 0.3 mg/kg): 32.3% | Wet weight of anus-rectum ([6]; oral 0.3 mg/kg, average ± standard error, ** P < 0.01 vs control): 292.5 ± 11.28 mg | Inhibition ratio ([6]; oral 1.0 mg/kg): 39.3% | Wet weight of anus-rectum ([6]; oral 1.0 mg/kg, average ± standard error, ** P < 0.01 vs control): 279.3 ± 8.32 mg | swelling inhibition activity (in words) ([6]; oral 0.1 to 1.0 mg/kg, depending upon the dosage): clear swelling inhibition activity depending upon the dosage | swelling in rectum-anus portion and histopathological data (overall, in words) ([6]; orally and intrarectally administered): clearly inhibits the swelling; also recorded: remarkable effects in histopathological data | Submucosa Inflammatory cell infiltration, number of rats ([6]; score + (Low degree), intrarectal, distribution X P < 0.05): 5 | Mucosa Congestion, number of rats [6, 10]: 8 | Mucosa Epithelium Activation, number of rats [6, 10]: 2 | Mucosa Congestion, number of rats [6, 11]: 0 | Mucosa Epithelium Activation, number of rats [6, 11]: 6 | Submucosa Inflammatory cell infiltration, number of rats [6, 11]: 3 | Submucosa Swelling, number of rats ([6]; score ++ (Intermediate degree), intrarectal, distribution XX P < 0.01): 8 | Submucosa Swelling, number of rats ([6]; score +++ (High degree), intrarectal): 0 | Mucosa Epithelium Activation, number of rats ([6]; score - (No change), intrarectal): 0 | change ratio of wound area ([7]; 3 days after administration, 5 μg/10 μl/cm^2 once per day for 14 days, mean ± S.E.): 95.7 ± 2.50% | amount of exudate (in words) [7, 12]: clear increase | number of infiltrated leucocyte (in words) [7, 12]: clear increase | Amount of exudate [7, 13]: 36.6 ± 10.73 µL | Number of infiltrated leucocyte [7, 13]: 110.1 ± 31.66 × 10^4 cells/site | change ratio of wound area ([7]; 10 days after administration, mean ± S.E., ** P < 0.01 vs vehicle): 24.4% | change ratio of wound area ([7]; 21 days after administration, mean ± S.E., * P < 0.05 vs vehicle): 0.1% | histology of skin ablation portions (in words) ([7]; 31 days after the skin ablation): the whole areas were covered with regenerated skin and the exudate of the dermis disappeared; also recorded: the tissue showed transition to fibrosis, no formation of abnormal tissue or no scar of excess formation was shown, and normal wound healing was shown | completion of healing first observed ([7]; day after administration): from the twenty-first day after administration | wound surfaces (decrease, in words) ([7]; from the sixth day after administration, as compared with vehicle): remarkable decreases | Days until complete healing ([7]; mean ± S.E., ** P < 0.01 vs vehicle): 22 days | systemic side effects ([7]; mouse, in vivo): no systemic side effects | Dermis, Subcutaneous tissue Exudate, number of cases [7, 14]: 1 cases in six mice | Epidermis Hypertrophy, number of cases [7, 14]: 1 cases in six mice | Epidermis Regeneration, number of cases [7, 14]: 0 cases in six mice | Dermis, Subcutaneous tissue Fibrosis, number of cases [7, 15]: 0 cases in six mice | Dermis, Subcutaneous tissue Granulation, number of cases [7, 15]: 2 cases in six mice | Dermis, Subcutaneous tissue Fibrosis, number of cases [7, 16]: 2 cases in six mice | Dermis, Subcutaneous tissue Granulation, number of cases [7, 16]: 0 cases in six mice | Epidermis Regeneration, number of cases ([7]; score ++ (Intermediate degree), 31 days after the skin ablation, distribution * P < 0.05 (H test)): 0 cases in six mice | Dermis, Subcutaneous tissue Fibrosis, number of cases [7, 17]: 4 cases in six mice | Epidermis Regeneration, number of cases [7, 17]: 6 cases in six mice | Dermis, Subcutaneous tissue Fibrosis, number of cases [7, 18]: 0 cases in six mice | Dermis, Subcutaneous tissue Granulation, number of cases [7, 18]: 4 cases in six mice | Epidermis Regeneration, number of cases [7, 18]: 0 cases in six mice | Dermis, Subcutaneous tissue Exudate, number of cases ([7]; score - (Not affected), 31 days after the skin ablation, distribution * P < 0.05 (H test)): 5 cases in six mice | vascularization and granulation on the wound surfaces ([7]; visual, as compared with vehicle-administered group): clear expeditious progress in the vascularization and granulation

Structure (SMILES): CCCCC[C@H](O)/C=C/[C@@H]1[C@H]2C/C(=C/CCCC(=O)O)O[C@H]2C[C@H]1O [PGI2, Prostaglandin I2]
chemical stability [3]: chemically unstable | inhibition activity of platelet aggregation [1]: high inhibition activity of platelet aggregation
